Source: patent US8598193B2, “Polycyclic agents for the treatment of respiratory syncytial virus infections” (Biota Scientific Management Pty Ltd., priority 2003, dated 2013)
In brackets after ≈: the same amount, converted by molar mass. Like-named read-outs stand apart in the source and are kept apart here.

Columns and labels:
[1] = target: T1, RSV A2 F glycoprotein (membrane-anchored full-length F) in 293 cells (Human respiratory syncytial virus A, UniProt P03420); assay: RSV fusion assay (syncytium formation assay); format: cell-based
T1 construct: A membrane-anchored full-length F was generated essentially according to the method described therein; expressed in transfected cells; host or cells: 293 cells
T1 sequence (P03420 26-109): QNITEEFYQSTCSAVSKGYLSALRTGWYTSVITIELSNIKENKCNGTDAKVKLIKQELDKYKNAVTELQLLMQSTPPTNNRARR
T1 sequence (P03420 137-574): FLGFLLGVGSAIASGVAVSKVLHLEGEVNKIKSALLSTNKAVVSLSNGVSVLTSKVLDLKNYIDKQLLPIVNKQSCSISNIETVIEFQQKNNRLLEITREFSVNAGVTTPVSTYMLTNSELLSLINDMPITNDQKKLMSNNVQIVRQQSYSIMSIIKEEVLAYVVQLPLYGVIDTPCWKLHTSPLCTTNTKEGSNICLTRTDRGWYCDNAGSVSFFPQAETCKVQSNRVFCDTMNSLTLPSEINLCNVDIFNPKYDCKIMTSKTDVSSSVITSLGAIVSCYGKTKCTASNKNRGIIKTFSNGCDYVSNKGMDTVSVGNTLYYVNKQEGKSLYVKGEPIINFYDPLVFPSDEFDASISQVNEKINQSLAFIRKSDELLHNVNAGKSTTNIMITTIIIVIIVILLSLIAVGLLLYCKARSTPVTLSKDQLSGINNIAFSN
Method: Method R: RSV Fusion Assay
Selected compounds of the invention were tested for their ability to inhibit the essential fusion processes of the respiratory syncytial virus.
Single-stranded synthetic DNA oligonucleotides encoding the portions of RSV A2 F glycoprotein incorporating optimal codons and without potential poly(A) addition or splice sites were generated synthetically (Mason et al, WO0242326). A membrane-anchored full-length F was generated essentially according to the method described therein and in Morton et al, Virology, 2003, 311, 275.
Fusion activity of the RSV-F constructs was measured in 293 cells essentially according to the method described in Morton et al, Virology, 2003, 311, 275. For example: cells in six well plates at approximately 80% confluency were transfected by adding plasmid DNA (2 μg/well) carrying the constructs of interest in CaPO4 solution for 4 hours. After glycerol shock and wash, the transfected cells were trypsinized and 1.5×10^4 cells/well added to 96-well plates containing half-log serial dilutions of the test compound. Syncytium formation was evaluated by visual inspection and quantified at 48 hours post-transfection by addition of 20 μL of CellTiter 96 One Solution (Promega) followed by incubation for 4 hours at 37° C. The colour reaction was then stopped by addition of 25 μL 10% SDS to each well and absorbance measured at 492 nm. The compound concentration that reduced absorbance relative to untreated control cultures by 50% (EC50) was calculated using an Excel curve fitting program.

RSV A2 [2] = assay: RSV cotton rat model; format: in vivo; details: oral 100 mg/kg/day, lung RSV titres by plaque assay four days after inoculation
Method: Method S: RSV Cotton Rat Model
The cotton rat model was performed essentially as described in the literature (Wyde et al, Antiviral Res. 2003, 60, 221). Briefly, cotton rats weighing 50-100 g were lightly anesthetized with isoflurane and dosed orally with 100 mg/kg/day of compound or vehicle control. Viral infection followed 2 hours post-treatment in similarly anesthetized rats by intranasal instillation with approximately 1000 TCID50 of RSV A2 per animal. Four days after virus inoculation, each cotton rat was sacrificed and their lungs removed and RSV titres determined by plaque assay.

RSV A2 [3] = assay: RSV antiviral cytopathic effect (CPE) assay, MTT readout; format: cell-based; details: human respiratory syncytial virus, HEp-2, 120 h
Method: Method Q: RSV Antiviral Assay Protocol
Compounds of the invention were tested for their antiviral activity against respiratory syncytial virus. Cytopathic effect (CPE) assays were performed essentially as described in the literature (see for example Watanabe et al, 1. Virological Methods, 1994, 48, 257). Serial dilutions of the test compounds were made in assay medium. HEp2 cells (1.0×10^4 cells/well) were infected with RSV at a low multiplicity of infection (e.g. RSV A2 at an moi of 0.01) and 100 μL added to cultures assessing antiviral activity and cells without virus added to those assessing compound cytotoxicity. Assays were incubated for approximately 5 days at 37° C. in a 5% CO2 atmosphere. The extent of CPE was determined via metabolism of the vital dye 3-(4,5-dimethylthiaxol-2-yl)-2,5-diphenyltetrazolium bromide (MTT). A 3 mg/ml stock of MTT was made in assay medium and 100 μL added to each well, taking the final MTT concentration to […]. After 2 hours incubation at 37° C., the media-MTT solution was removed and 200 μL of isopropanol was added to dissolve the vital dye crystals. Plates were shaken and the absorbance read at 540 nm. The compound concentrations that inhibited CPE by 50% (EC50) and developed cytotoxicity (CC50) were calculated using an Excel curve fitting program.

RSV A2 [4] = assay: RSV Balb/c mouse model; format: in vivo; details: female Balb/c mice, compound orally 6 hours preinfection, lung RSV titres by plaque assay three days after virus inoculation
Method: Method T: RSV Balb/c Mouse Model
The mouse model was performed essentially as described by Clanci et al (Antimicrobial Agents and Chemotherapy. 2004, 48, 413). Briefly, eight week old female Balb/c mice were weighed, anesthetized intraperitoneally with Avertin™ and compound or vehicle administered orally 6 hours preinfection. Mice were inoculated intranasally with approximately 10000 TCID50 RSV A2 per animal. Three days after virus inoculation, each mouse was sacrificed and their lungs removed and RSV titres determined by plaque assay.

[5] = RSV A2 in HEp2 cells, CPE assay, MTT, approx. 5 days, read-out: Activity Range (RSV A2 antiviral EC50), compounds of Table 3
[6] = RSV A2 in HEp2 cells, CPE assay, MTT, approx. 5 days, read-out: Activity Range (RSV A2 antiviral EC50), compounds of Table 2

CCC(=O)N1CCN2C(=O)c3ccccc3C12c1ccc(Cl)cc1 (centres unmarked) [Compound 16]
EC50 [1]: 2.2 to 4.4 µM

O=C(c1ccc(F)cc1)N1CCN2C(=O)c3ccncc3C12c1ccc(Cl)cc1 (centres unmarked) [Compound 336]
% Reduction of virus Control (RSV A2 [2]): 96%
EC50 (RSV A2 [3]; [5]): 0.1 to 0.25 µg/mL (≈ 0.245 to 0.613 µM)
EC50 [1]: < 1.84 µM
% Reduction of virus Control (RSV A2 [4]): 80%

O=C(c1ccc(F)cc1)N1CCN2C(=O)c3ccccc3C12c1ccc(Cl)cc1 (centres unmarked) [Compound 12]
EC50 (RSV A2 [3]; read-out: Activity Range (RSV A2 antiviral EC50), compounds of Table 2): 0.1 to 0.25 µg/mL (≈ 0.246 to 0.614 µM)
EC50 [1]: 3.69 to 5.53 µM

O=C(c1ccc(F)nc1)N1CCN2C(=O)c3ccccc3C12c1ccc(Cl)cc1 (centres unmarked) [Compound 306]
% Reduction of virus Control (RSV A2 [2]): 72%
EC50 (RSV A2 [3]; [6]): < 0.1 µg/mL

COc1ccc(CC(=O)N2CCN3C(=O)c4ccccc4C23c2ccc(C)cc2)cc1 (centres unmarked) [Compound 66]
EC50 (RSV A2 [3]; [6]): 0.1 to 0.25 µg/mL (≈ 0.242 to 0.606 µM)
EC50 [1]: 1.82 to 3.64 µM

O=C(c1ccc(F)cc1)N1CCN2C(=O)c3ccccc3C12c1ccc(F)cc1 (centres unmarked) [Compound 231]
EC50 (RSV A2 [3]; [6]): 0.25 to 1 µg/mL (≈ 0.64 to 2.56 µM)

CC(C)Oc1ccc(C23c4ccccc4C(=O)N2CCN3C(=O)c2ccc(F)cc2)cc1 (centres unmarked) [Compound 310]
EC50 (RSV A2 [3]; [6]): 0.25 to 1 µg/mL (≈ 0.581 to 2.32 µM)

O=C(NCc1ccc(F)cc1)N1CCN2C(=O)c3ccccc3C12c1ccc(Cl)cc1 (centres unmarked) [Compound 87]
EC50 (RSV A2 [3]; [6]): 0.1 to 0.25 µg/mL (≈ 0.229 to 0.574 µM)

O=C(c1ccoc1)N1CCN2C(=O)c3ccccc3C12c1ccc(Cl)cc1 (centres unmarked) [Compound 326]
EC50 (RSV A2 [3]; [6]): 0.1 to 0.25 µg/mL (≈ 0.264 to 0.66 µM)

O=C(c1ccc(F)cc1)N1CCN2C(=O)c3cc[n+]([O-])cc3C12c1ccc(Cl)cc1 (centres unmarked) [Compound 352]
% Reduction of virus Control (RSV A2 [2]): 68%
EC50 (RSV A2 [3]; [5]): 0.1 to 0.25 µg/mL (≈ 0.236 to 0.59 µM)

CCC(=O)N1CCN2C(=O)c3ccccc3C12c1ccc(C(F)(F)F)cc1 (centres unmarked) [Compound 305]
EC50 (RSV A2 [3]; [6]): 0.25 to 1 µg/mL (≈ 0.668 to 2.67 µM)

O=C1c2ccncc2C2(c3ccc(Cl)cc3)N1CCN2C(=O)c1cccnc1Oc1ccc(Cl)cc1 (centres unmarked) [Compound 395]
EC50 (RSV A2 [3]; [5]): 0.25 to 1 µg/mL (≈ 0.483 to 1.93 µM)

O=C(c1ccc(F)cc1)N1CCN2C(=O)c3cccnc3C12c1ccc(Cl)cc1 (centres unmarked) [Compound 360]
EC50 (RSV A2 [3]; [5]): 0.25 to 1 µg/mL (≈ 0.613 to 2.45 µM)
